According to patent US20230255921A1, “COMPOSITION FOR TREATING KCA3.1 CHANNEL-MEDIATED DISEASES COMPRISING PHENYLALKYL CARBAMATE COMPOUND” (CEL[…], priority 2020, published 2023):
Structures can show the parent of a compound that is named as a salt.

What was measured:
KCa3.1 channel = KCa3.1 channel (Mus musculus, UniProt O89109); assay: Whole-cell patch-clamp KCa3.1 current in cultured fibroblasts; type: cell-based; parameters: host or cells: fibroblasts (ATCC CRL-2795); conditions: FIG. 1 and FIG. 2
Procedure: Fibroblasts (CRL-2795: American Type Culture Collection, VA) were cultured in Dulbecco's Modified Eagle Medium (Hyclone, Logan, Utah). All cells were maintained in 5% CO2 under a humid condition at 37° C. The cultured fibroblasts were exposed to pro-inflammatory agents such as lipopolysaccharides (LPS) and a pro-fibrotic agent TGFβ, and the compounds of Chemical Formulas 2 to 8 of the present invention (hereinafter, referred to as SF-2 to SF-8 compounds) for 24 hours, and then anti-inflammatory and anti-fibrotic effects were tested.
Whole cell current through the cell membrane in isolated and cultured single fibroblasts was measured using a patch-clamp technique. A voltage ramp was used to apply voltage to whole-cell voltage clamp cells from −100 mV to +100 mV using a micro-glass electrode, the generated current was amplified using an amplifier (EPC-10, HEKA, Lambrecht, Germany) and then recorded at a sampling rate of 1 to 4 kHz. […]
KCa3.1 current was isolated using the following method. Ina current recorded by injecting 1 μM Ca^2+ into whole-cell voltage clamp cells using a glass electrode and applying 1-ethyl-2-benzimidazolinone (1-EBIO, 100 μM) activating KCa3.1 current, a current inhibited by KCa3.1 channel inhibitor TRAM-34 (10 μM) was determined as the KCa3.1 current, and the recorded current was normalized by division by cell capacitance.

[1] = tested on: liver fibrosis induced by a CDAHFD diet; assay: CDAHFD diet-induced liver fibrosis mouse model; type: in vivo, C57BL/6 wild-type mice; conditions: CDAHFD+SF-2 vs CDAHFD group, 100 mg/kg/day five times a week, 16 weeks
Procedure: (§1) To confirm the therapeutic effect of the SF-2 compound of the present invention on liver inflammation and fibrosis, an experiment was performed as follows. First, C57BL/6 wild-type mice (purchased from Orient Bio) were divided into three groups of 6 to 8, and used as a disease-induced group, a drug-administered group, and a normal control. The test mice for each group were treated as follows.
(1) Drug-induced group: Test mice were fed a CDAHFD diet (choline deficient, L-amino-acid-defined, high-fat diet with 0.1% methionine. A06071302, Research Diets, New Brunswick, N.J.) to induce fatty liver disease and fibrosis. In addition, the same amount of distilled water as that of the SF-2 compound administered to the following drug-administered group five times a week using a zonde (oral tube). In the accompanying drawing, CDAHFD indicates the disease-induced group.
(2) Drug-administered group: The SF-2 compound of the present invention, together with the CDAHFD diet, was administered (100 mg/kg/day) to test mice five times a week. In the accompanying drawing, CDAHFD+SF-2 indicates the drug-administered group.
(3) Normal control: Test mice were fed a normal diet. In addition, the same amount of distilled water as that of the SF-2 compound was administered to the drug-administered group five times a week using a zonde (oral tube). In the accompanying drawing, C or Control indicates the normal group.
The mouse models for each group were treated with drugs for 16 weeks in the same way as described above and immediately killed by administering an excess of an anesthetic, and then the livers were extracted and used in the subsequent test.
(§2) The lung and liver tissues extracted from the mouse model were fixed with a paraformaldehyde solution, and cut to a thickness of 1 to 2 mm. The cut tissue was embedded in paraffin and cut to a thickness of 4 μm, the paraffin was removed with xylene, the xylene was removed with ethanol, and the resultant was washed with tap water, thereby obtaining a paraffinized tissue specimen.
(§3) Tissue immunohistochemistry for collagen, which is a fibrotic marker, in the lung and liver tissues, was performed by Masson's trichrome staining.
(§4) The degrees of mRNA expression of pro-inflammatory or pro-fibrotic agents in lung and liver tissues extracted from the mouse models were measured by real time PCR. RNAs of these tissues were isolated using a TRIzol reagent (Molecular Research Center. Cincinnati, Ohio), and single-stranded cDNA was synthesized using BcaBEST polymerase (Takara Shuzo), followed by performing PCR.

[2] = tested on: lung fibrosis induced by bleomycin; assay: Bleomycin-induced lung fibrosis mouse model; type: in vivo, C57BL/6 wild-type mice; conditions: BLM+SF-2 vs BLM group
Procedure: as §1, with “the” for “the therapeutic”, “compound according to” for “compound of”, “on the inhibition of” for “on liver inflammation and”, “follows. First.” for “follows. First,”
(1) Disease-induced group: Lung fibrosis was induced by injecting 1.5 units of bleomycin into the airways of test mice. In addition, the same amount of distilled water as the SF-2 compound administered to the following drug-administered group was intraperitoneally injected (100 mg/kg) 5 times a week. In the accompanying drawing, bleomycin (BLM) refers to this disease-induced group.
(2) Drug-administered group: 1.5 units of bleomycin was injected into the airways of test mice, and then the SF-2 compound of the present invention was intraperitoneally injected (100 mg/kg) five times a week. In the accompanying drawing, BLM+SF-2 indicates the drug-administered group.
(3) Normal control: The same amount of distilled water as that of bleomycin injected into the disease-induced group was injected into the airways. In addition, the same amount of distilled water as that of the SF-2 compound administered to the drug-administered group was intraperitoneally injected five times a week. In the accompanying drawing, C or Control indicates the normal group.
The mouse models for each group were treated with drugs for 4 weeks in the same way as described above and immediately killed by administering an excess of an anesthetic, and then the lungs were extracted and used in the subsequent test.
as §2, §3, §4

[3] = lung tissue, 100 mg/kg intraperitoneal five times a week, 4 weeks, FIG. 6

Chain of KCa3.1 channel (O89109 whole entry): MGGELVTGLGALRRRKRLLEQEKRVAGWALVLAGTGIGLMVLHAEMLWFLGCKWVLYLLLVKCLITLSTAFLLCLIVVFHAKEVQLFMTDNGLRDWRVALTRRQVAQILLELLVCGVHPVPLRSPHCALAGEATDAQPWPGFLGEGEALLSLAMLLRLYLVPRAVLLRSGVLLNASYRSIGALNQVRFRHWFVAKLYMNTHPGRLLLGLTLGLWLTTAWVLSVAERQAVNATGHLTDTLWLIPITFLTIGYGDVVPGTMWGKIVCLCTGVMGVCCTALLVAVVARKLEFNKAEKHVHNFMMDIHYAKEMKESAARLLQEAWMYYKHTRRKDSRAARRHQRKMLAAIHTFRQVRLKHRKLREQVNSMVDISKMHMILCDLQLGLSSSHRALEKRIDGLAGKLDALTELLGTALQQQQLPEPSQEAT

NC(=O)OC[C@H](N)Cc1ccccc1 [SF-2, (R)-2-amino-3-phenyl propylcarbamate hydrochloride]
KCa3.1 current activated by Ca2+ and 1-EBIO in cells (KCa3.1 channel): inhibited by SF-2 in a concentration-dependent manner
degree of blue staining of the liver tissue (Masson's trichrome, collagen fiber) ([1]; FIG. 7): greatly decreased
mRNA expression level of Col1α ([1]; FIG. 8): greatly decreased
mRNA expression level of Col3α ([1]; FIG. 8): greatly decreased
mRNA expression level of α-SMA ([1]; FIG. 8): greatly decreased
fibrosis degree, Masson's trichrome staining of lung tissue ([2]; intraperitoneal five times a week for 4 weeks, FIG. 5): decreased
mRNA expression level of Col1α [2, 3]: greatly decreased
mRNA expression level of Col3α [2, 3]: greatly decreased
mRNA expression level of α-SMA [2, 3]: greatly decreased
